The record followed here is patent US9204653B2, “5-fluoro pyrimidine derivatives” (DOW AGROSCIENCES LLC, priority 2008, dated 2015).

Where two headings read alike, the source gives them in different places.

This test concerns Mycosphaerella graminicola; Anamorph: Septoria tritici; Bayer Code SEPTTR. Nature of the test: Leaf blotch of wheat, foliar fungicide treatment, one day protectant (1DP) or three day curative (3DC). Type of test: in vivo, Septoria tritici on wheat plants (variety Yuma). The following applies: Zymoseptoria tritici; for pest or weed control at 50 ppm / pest or weed control at 200 ppm: % disease control rating.

Setting [1] is: 24 h, one day protectant (1DP), 25 ppm (first 1DP column), percent control rating, read-out: SETTTR 1DP 25 ppm.
[2] abbreviates: 24 h, one day protectant (1DP), 25 ppm as printed (second 1DP column), percent control rating, read-out: SETTTR 1DP 25 ppm.
The mark [3] stands for this setting: 72 h, three day curative (3DC), 25 ppm, percent control rating, read-out: SEPTTR 3DC 25 ppm.
Setting [4] is: 72 h, three day curative (3DC), percent control rating, read-out: SEPTTR 3DC 100 ppm.
Where [5] appears, read: 24 h, one day protectant, 25 ppm, rating of percent disease control, read-out: SETTTR 1DP 25 ppm.
Where [6] appears, read: 24 h, one day protectant, rating of percent disease control, read-out: SEPTTR 1DP 100 ppm.
The mark [7] stands for this setting: 72 h, three day curative, 25 ppm, rating of percent disease control, read-out: SEPTTR 3DC 25 ppm.
The mark [8] stands for this setting: 72 h, three day curative, rating of percent disease control, read-out: SEPTTR 3DC 100 ppm.
[9] abbreviates: 24 h, one day protectant (1DP), 25 ppm, rating of percent disease control, read-out: SETTTR 1DP 25 ppm.
Setting [10] is: 24 h, one day protectant (1DP), rating of percent disease control, read-out: SEPTTR 1DP 100 ppm.
[11] abbreviates: 72 h, three day curative (3DC), 25 ppm, rating of percent disease control, read-out: SEPTTR 3DC 25 ppm.
[12] abbreviates: 72 h, three day curative (3DC), rating of percent disease control, read-out: SEPTTR 3DC 100 ppm.
[13] abbreviates: 24 h, one day protectant (1DP), 25 ppm, percent disease control rating, read-out: SETTTR 1DP 25 ppm.
Setting [14] is: 24 h, one day protectant (1DP), percent disease control rating, read-out: SEPTTR 1DP 100 ppm.
The mark [15] stands for this setting: 72 h, three day curative (3DC), 25 ppm, percent disease control rating, read-out: SEPTTR 3DC 25 ppm.
Where [16] appears, read: 72 h, three day curative (3DC), percent disease control rating, read-out: SEPTTR 3DC 100 ppm.

With `CON(C)c1nc(O)ncc1F` [Compound 1096], the pest or weed control at 25 ppm lay in the range of 0 to 25% under setting [1], 0 to 25% under setting [2] and 0 to 25% under setting [3]. Further, the pest or weed control at 100 ppm under setting [4] lay within 76 to 100%.

For the setting “24 h, one day protectant”, `Cc1ccc(COc2ncc(F)c(NCc3ccc(Cl)nc3)n2)cc1` [Compound 844] registered a pest or weed control at 50 ppm of 76 to 100% and a pest or weed control at 200 ppm of 76 to 100%.

On to `N#Cc1cccc(COc2ncc(F)c(NC(=O)OCc3ccccc3)n2)c1` [Compound 690], for which the pest or weed control at 25 ppm runs as follows: under setting [5], 51 to 75%; under setting [7], 76 to 100%. Moreover, the pest or weed control at 100 ppm is, setting by setting: under setting [6], 76 to 100%; under setting [8], 76 to 100%.

Turning to `CCCNC(=O)Nc1nc(OCc2ccc(F)cc2)ncc1F` [Compound 186], the pest or weed control at 25 ppm reads like this: under setting [9], 51 to 75%; under setting [11], 0 to 25%. Besides, the pest or weed control at 100 ppm was 51 to 75% under setting [10] and 0 to 25% under setting [12].

For `COc1cccc(COc2ncc(F)c(NC(C)=S)n2)c1` [Compound 770], the pest or weed control at 25 ppm is, setting by setting: under setting [9], 76 to 100%; under setting [11], 76 to 100%. The pest or weed control at 100 ppm fell in the range of 76 to 100% under setting [10] and 76 to 100% under setting [12].

For the compound `Cc1ccc(COc2ncc(F)c(NS(=O)(=O)C3CC3)n2)cc1` [Compound 1007], the pest or weed control at 25 ppm under setting [1] was 0 to 25%, the pest or weed control at 25 ppm under setting [2] is 0 to 25% and the pest or weed control at 25 ppm under setting [3] was in the range of 0 to 25%. Further, the pest or weed control at 100 ppm under setting [4] lay in the range of 0 to 25%.

Under “24 h, one day protectant”, `Fc1cnc(OCc2ccc(Cl)cc2)nc1NCc1cccs1` [Compound 808] yielded a pest or weed control at 50 ppm of 76 to 100% and a pest or weed control at 200 ppm of 76 to 100%.

Take `Nc1nc(OCc2ccc(C(F)(F)F)cc2)ncc1F` [Compound 705]: the pest or weed control at 25 ppm is, setting by setting: under setting [5], 76 to 100%; under setting [7], 51 to 75%. Further, the pest or weed control at 100 ppm was in the range of 76 to 100% under setting [6] and 76 to 100% under setting [8].

Turning to `COc1ccccc1COc1ncc(F)c(NCc2cccs2)n1` [Compound 869], the pest or weed control at 200 ppm (24 h, one day protectant) lay in the range of 76 to 100%.

Consider `CCOCCOc1cccc(COc2ncc(F)c(NSc3ccccc3[N+](=O)[O-])n2)c1` [Compound 655], for which the pest or weed control at 25 ppm runs as follows: under setting [5], 51 to 75%; under setting [7], 51 to 75%. In addition, the pest or weed control at 100 ppm under setting [6] lay in the range of 76 to 100% and the pest or weed control at 100 ppm under setting [8] was 26 to 50%.

Take `Cn1ccc(COc2ncc(F)c(NC(=O)NCc3ccccc3F)n2)n1` [Compound 64]: the pest or weed control at 25 ppm is, setting by setting: under setting [13], 0 to 25%; under setting [15], 0 to 25%. In addition, the pest or weed control at 100 ppm under setting [14] was in the range of 0 to 25% and the pest or weed control at 100 ppm under setting [16] was 26 to 50%.

Regarding `COc1ccccc1COc1ncc(F)c(/N=C2\CCCCN2C)n1` [Compound 317], the pest or weed control at 25 ppm runs as follows: under setting [9], 51 to 75%; under setting [11], 26 to 50%. Moreover, the pest or weed control at 100 ppm runs as follows: under setting [10], 76 to 100%; under setting [12], 76 to 100%.

On to `Fc1cnc(OCc2cccs2)nc1NCc1cccs1` [Compound 831], for which, under “24 h, one day protectant”, the pest or weed control at 50 ppm fell in the range of 51 to 75% and the pest or weed control at 200 ppm fell in the range of 76 to 100%.

For the compound `Nc1nc(OS(=O)(=O)c2cccs2)ncc1F` [Compound 348], the pest or weed control at 25 ppm runs as follows: under setting [9], 76 to 100%; under setting [11], 76 to 100%. Moreover, the pest or weed control at 100 ppm reads like this: under setting [10], 76 to 100%; under setting [12], 76 to 100%.

As for `CCOC(=O)COC(=O)Nc1nc(OCc2ccc(C)cc2)ncc1F` [Compound 176], the pest or weed control at 25 ppm under setting [13] was 51 to 75% and the pest or weed control at 25 ppm under setting [15] lay in the range of 76 to 100%. Besides, the pest or weed control at 100 ppm lay within 76 to 100% under setting [14] and 76 to 100% under setting [16].

With `Nc1nc(OCc2ccc(F)c(C(F)(F)F)c2)ncc1F` [Compound 60], the pest or weed control at 25 ppm under setting [13] is 76 to 100% and the pest or weed control at 25 ppm under setting [15] fell in the range of 76 to 100%. For the same compound, the pest or weed control at 100 ppm runs as follows: under setting [14], 76 to 100%; under setting [16], 76 to 100%.

Take `CC(=S)Nc1nc(OCc2ccc(F)cc2)ncc1F` [Compound 53, N-(5-Fluoro-2-(4-fluorobenzyloxy)pyrimidin-4-yl)ethanethioamide]: the pest or weed control at 25 ppm under setting [13] lay within 76 to 100% and the pest or weed control at 25 ppm under setting [15] lay in the range of 76 to 100%. Also, the pest or weed control at 100 ppm by setting is: under setting [14], 76 to 100%; under setting [16], 76 to 100%.

As for `CC(=O)OCOc1ncc(F)c(/N=C/N(C)C)n1` [Compound 1083], the pest or weed control at 25 ppm runs as follows: under setting [1], 76 to 100%; under setting [2], 76 to 100%; under setting [3], 76 to 100%. The pest or weed control at 100 ppm under setting [4] was in the range of 76 to 100%.

As to `Fc1ccc(COc2ncc(F)c(/N=N/c3ccccc3Cl)n2)cc1` [Compound 1014], the pest or weed control at 25 ppm lay in the range of 0 to 25% under setting [1], 0 to 25% under setting [2] and 0 to 25% under setting [3]. Moreover, under setting [4], the pest or weed control at 100 ppm lay within 76 to 100%.

For the setting “24 h, one day protectant”, `Fc1cnc(OC2CCCCC2)nc1NCCc1ccccc1` [Compound 837] had a pest or weed control at 50 ppm of 0 to 25% and a pest or weed control at 200 ppm of 0 to 25%.

With `CNC(=O)/C(=N/OC)c1ccccc1COc1ncc(F)c(N)n1` [Compound 96], the pest or weed control at 25 ppm runs as follows: under setting [13], 0 to 25%; under setting [15], 0 to 25%. Besides, the pest or weed control at 100 ppm under setting [14] lay in the range of 0 to 25% and the pest or weed control at 100 ppm under setting [16] lay within 0 to 25%.

`COc1ccccc1COc1ncc(F)c(NC(C)=O)n1` [Compound 309]: the pest or weed control at 25 ppm fell in the range of 76 to 100% under setting [9] and 76 to 100% under setting [11]. Besides, the pest or weed control at 100 ppm is, setting by setting: under setting [10], 76 to 100%; under setting [12], 76 to 100%.

For the compound `Nc1nc(OCc2ccc(SC(F)(F)F)cc2)ncc1F` [Compound 632], the pest or weed control at 25 ppm lay in the range of 76 to 100% under setting [5] and 76 to 100% under setting [7]. For the same compound, the pest or weed control at 100 ppm is, setting by setting: under setting [6], 76 to 100%; under setting [8], 76 to 100%.

Where the note is “24 h, one day protectant”, `Fc1cnc(OCCc2ccccc2)nc1NCCc1ccccc1` [Compound 862] had a pest or weed control at 50 ppm of 51 to 75% and a pest or weed control at 200 ppm of 76 to 100%.

Take `Nc1nc(O/N=C2\CCc3ccccc32)ncc1F` [Compound 181]: the pest or weed control at 25 ppm is 76 to 100% under setting [13] and 76 to 100% under setting [15]. The pest or weed control at 100 ppm by setting is: under setting [14], 76 to 100%; under setting [16], 76 to 100%.

`Fc1ccccc1CNc1nc(OCc2ccccc2)ncc1F` [Compound 750]: the pest or weed control at 25 ppm is 26 to 50% under setting [9] and 26 to 50% under setting [11]. Moreover, the pest or weed control at 100 ppm under setting [10] was 76 to 100% and the pest or weed control at 100 ppm under setting [12] is 51 to 75%.

Consider `Cc1c(N)cccc1COc1ncc(F)c(N)n1` [Compound 399], for which the pest or weed control at 25 ppm under setting [9] lay in the range of 51 to 75% and the pest or weed control at 25 ppm under setting [11] is 76 to 100%. Also, the pest or weed control at 100 ppm runs as follows: under setting [10], 76 to 100%; under setting [12], 76 to 100%.

With `C=CCOC(=O)Nc1nc(OCc2ccc(C)cc2)ncc1F` [Compound 987], the pest or weed control at 25 ppm under setting [1] fell in the range of 76 to 100%, the pest or weed control at 25 ppm under setting [2] was in the range of 76 to 100% and the pest or weed control at 25 ppm under setting [3] is 76 to 100%. Besides, the pest or weed control at 100 ppm under setting [4] was in the range of 76 to 100%.

As to `Cc1ccc(C(=O)Oc2ncc(F)c(/N=C/N(C)C)n2)c(C)c1` [Compound 422], the pest or weed control at 25 ppm by setting is: under setting [9], 76 to 100%; under setting [11], 76 to 100%. In addition, the pest or weed control at 100 ppm under setting [10] lay within 76 to 100% and the pest or weed control at 100 ppm under setting [12] lay in the range of 76 to 100%.

For `O=C(Nc1nc(OCc2cccs2)ncc1F)c1ccccc1` [Compound 759], the pest or weed control at 25 ppm reads like this: under setting [9], 51 to 75%; under setting [11], 26 to 50%. Further, the pest or weed control at 100 ppm lay in the range of 76 to 100% under setting [10] and 76 to 100% under setting [12].

On to `COc1nn(C)c(C(F)(F)F)c1S(=O)(=O)Nc1nc(OCc2ccc(C)cc2)ncc1F` [Compound 1015], for which the pest or weed control at 25 ppm runs as follows: under setting [1], 0 to 25%; under setting [2], 0 to 25%; under setting [3], 26 to 50%. Moreover, the pest or weed control at 100 ppm under setting [4] was 76 to 100%.

As to `Nc1nc(OCCc2cccc(C(F)(F)F)c2)ncc1F` [Compound 129], the pest or weed control at 25 ppm is, setting by setting: under setting [13], 26 to 50%; under setting [15], 76 to 100%. For the same compound, the pest or weed control at 100 ppm lay within 76 to 100% under setting [14] and 76 to 100% under setting [16].

Regarding `Fc1ccccc1CNc1nc(OCc2cc(Cl)cc(Cl)c2)ncc1F` [Compound 907], under “24 h, one day protectant”, the pest or weed control at 50 ppm lay within 51 to 75% and the pest or weed control at 200 ppm lay within 76 to 100%.

Take `CC(=O)Nc1nc(OCc2cccc(F)c2)ncc1F` [Compound 107]: the pest or weed control at 25 ppm is, setting by setting: under setting [13], 76 to 100%; under setting [15], 76 to 100%. In addition, the pest or weed control at 100 ppm by setting is: under setting [14], 76 to 100%; under setting [16], 76 to 100%.
